Laboratory results from patent US20260234185A1, “ANTI-AGING COMPOSITION COMPRISING PEPTIDE COMPLEX AS ACTIVE INGREDIENT” (priority 2023, published 2026).
Where no end group is shown, it is not given here.

Legend:
[1] = system: fibroblast growth factor 21 (FGF21) gene; experiment: RT-PCR of FGF21 gene expression in palmitate-treated adipocytes; assay type: cell-based; details: 3T3-L1 adipocytes, 25 μM palmitate 30 minutes; 0.2, 2, 20 μg/mL; 24 hours; RT-PCR vs palmitate control (PA) (FIGS. 4a, 4b)
Protocol: (§1) An experiment was performed to determine whether the peptide complex prepared in Preparation Example 1 increases the gene expression of longevity-related genes, FGF21, SIRT1, AMPK, and FOXO3A, in adipocytes in a state of insulin metabolic disorder induced by palmitate treatment.
(§2) When 3T3-L1 preadipocytes reached 80% confluence, they were seeded at 5×10^3 cells/well in a 96-well plate and used for the experiment. Two days after reaching confluence, the medium was replaced with differentiation-inducing medium to induce the differentiation into adipocytes, and two days after the induction, the medium was cultured for 2 days in a medium containing 10% FBS and 10 μg/mL insulin, and then the medium was replaced with 10% FBS every 2 days until their differentiation into adipocytes. After differentiation was complete, the medium was replaced with glucose-free medium, cultured for 16 hours, and then starvation was induced by culturing for 40 minutes in 100 μL KPPH buffer containing 2% BSA. After treating with 25 μM palmitate for 30 minutes, the peptide complexes were treated at concentrations of 0.2 μg/mL, 2 μg/mL, and 20 μg/mL, cultured for 24 hours, and RNA was extracted after 24 hours and RT-PCR was performed. […] Subsequently, the mRNA expression pattern was determined by agarose gel electrophoresis.

sirtuin 1 (SIRT1) gene = experiment: RT-PCR of SIRT1 gene expression in palmitate-treated adipocytes; assay type: cell-based; details: 3T3-L1 adipocytes, 25 μM palmitate 30 minutes; 0.2, 2, 20 μg/mL; 24 hours; RT-PCR vs palmitate control (PA) (FIGS. 4a, 4b)
Protocol: as §1, §2

[2] = system: AMP-activated protein kinase (AMPK) gene; experiment: RT-PCR of AMPK gene expression in palmitate-treated adipocytes; assay type: cell-based; details: 3T3-L1 adipocytes, 25 μM palmitate 30 minutes; 0.2, 2, 20 μg/mL; 24 hours; RT-PCR vs palmitate control (PA) (FIGS. 4a, 4b)
Protocol: as §1, §2

SIRT1 [3] = experiment: Western blot of SIRT1 protein expression in myocytes; assay type: cell-based, mouse; details: differentiated C2C12 myocytes; 0.2, 2, 20 μg/mL; 24 hours; Western blot (FIGS. 6a, 6b)
Protocol: An experiment was performed to determine whether the peptide complex increases the phosphorylation of AMPK and the expression of SIRT1 and FGF21 proteins in myocytes.
(§3) C2C12 cells, mouse-derived myoblasts, were cultured in DMEM medium containing 1% P/S and 2% BCS. When the cell confluency reached 70-80%, the cells were seeded in a 6-well culture plate. When the cell confluency in the 6-well culture plate reached 100%, the medium was replaced with differentiation medium (1% P/S, 2% horse serum), and thereafter, the differentiation medium (1% P/S, 2% horse serum) was replaced once every two days. Five days after the first replacement, the peptide complex was treated at concentrations of 0.2 μg/mL, 2 μg/mL, and 20 μg/mL and cultured for 24 hours. The group untreated with the peptide complex was used as the control. After dissolving by adding dissolution buffer thereto, the proteins obtained were centrifuged at 4° C. and 12,000 rpm for 30 minutes, and quantified using a BCA kit. The proteins were subjected to sodium dodecyl sulfate-polyacrylamide gel electrophoresis (SDS-PAGE) and then electrotransferred onto a membrane. The membrane with the proteins attached was blocked by treating it with 5% skim milk, and then the primary antibody was reacted overnight at 4° C. […]

AMPK = experiment: Western blot of AMPK phosphorylation in myocytes with palmitate-induced insulin metabolic disorder; assay type: cell-based, mouse; details: C2C12 myocytes in insulin metabolic disorder induced by palmitate treatment; 0.2, 2, 20 μg/mL; 24 hours; Western blot (FIGS. 7a, 7b)
Protocol: (§4) An experiment was performed to determine whether the peptide complex increases AMPK phosphorylation and SIRT1 expression levels in myocytes in a state of insulin metabolic disorder induced by palmitate treatment.
as §3

SIRT1 [4] = experiment: Western blot of SIRT1 expression in myocytes with palmitate-induced insulin metabolic disorder; assay type: cell-based, mouse; details: C2C12 myocytes in insulin metabolic disorder induced by palmitate treatment; 0.2, 2, 20 μg/mL; 24 hours; Western blot (FIGS. 7a, 7b)
Protocol: as §4, §3

peptide complex: prepared by mixing equal amounts of the peptide of SEQ ID NO: 1 (LKTRN) and the peptide of SEQ ID NO: 2 (KGSATGWMA) (also: mixture of two peptides)
increased: expression of fibroblast growth factor 21 (FGF21) gene [1] | expression of sirtuin 1 (SIRT1) gene (sirtuin 1 (SIRT1) gene) | expression of AMP-activated protein kinase (AMPK) gene [2] | expression level of SIRT1 protein (SIRT1 [3]) | phosphorylation of AMPK (AMPK) | expression level of SIRT1 protein (SIRT1 [4])
